# Source: PMC7293822 (ACS chemical biology, 2018)
# Numbered stars: 1 amine (or outer) side, 2 acyl side, 3 side chain; on linkers, the order of the positions; unused ones are H or OH. Ends that are not written are not given here. Peptide text beside a SMILES is read from it. * marks the point of attachment. Glutaryl = O=C(CCCC(=O)[*:2])[*:1]; AMC = Cc1cc(=O)oc2cc(N*)ccc12
# What was measured:
# Pd_dinase [1] = test: 10 nM of Pd_dinase incubated with each antimicrobial peptide; conditions: Parabacteroidetes distasonis, up to 1200 min
# Pd_dinase [2] = test: Inhibition of Pd_dinase by peptide-AOMK inhibitors; assay type: biochemical, Parabacteroidetes distasonis; conditions: 50 μM inhibitor, 2 nM Pd_dinase, 50 μM substrate, activity monitored for 4 h
# trypsin = test: bovine trypsin; conditions: up to 30 min
# Pd_dinase [3] = test: Pd_dinase; conditions: Parabacteroidetes distasonis, up to 30 min
# aminopeptidase B = test: human aminopeptidase B; conditions: up to 30 min
# Pd_dinase [4] = test: Fluorescent protease assay with AMC substrates, Pd_dinase; assay type: biochemical, Parabacteroidetes distasonis; conditions: 8 nM Pd_dinase, 50 μM substrate, 30 min, D-PBS, 2 mM DTT
# bovine trypsin = target: T1, bovine trypsin (Bos taurus, UniProt P00760); test: Fluorescent protease assay with AMC substrates, trypsin; assay type: biochemical; conditions: 100 nM bovine trypsin, 50 μM substrate, 30 min, D-PBS, 2 mM DTT
# T1 sequence (P00760 24-246): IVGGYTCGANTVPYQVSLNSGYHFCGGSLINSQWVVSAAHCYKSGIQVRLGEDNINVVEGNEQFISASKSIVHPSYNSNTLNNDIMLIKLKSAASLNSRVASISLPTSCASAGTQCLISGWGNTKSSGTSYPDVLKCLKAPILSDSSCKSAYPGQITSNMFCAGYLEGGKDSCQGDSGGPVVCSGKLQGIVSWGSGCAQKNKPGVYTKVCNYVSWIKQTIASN
# E. coli = conditions: cited from earlier work
# Pd_dinase [5] = test: Antimicrobial peptide digestion by Pd_dinase, LC-MS/MS; assay type: in vitro ADME, Parabacteroidetes distasonis
# Streptococcus pyogenes = conditions: cited from earlier work
# Staphylococcus aureus = conditions: cited from earlier work
# Pseudomonas aeruginosa = conditions: cited from earlier work
# human aminopeptidase B = human aminopeptidase B (Homo sapiens, UniProt Q9H4A4); test: Fluorescent protease assay with AMC substrates, aminopeptidase B; assay type: biochemical; conditions: 2 nM human aminopeptidase B, 50 μM substrate, 30 min, D-PBS, 2 mM DTT
# Chain of human aminopeptidase B (Q9H4A4 whole entry): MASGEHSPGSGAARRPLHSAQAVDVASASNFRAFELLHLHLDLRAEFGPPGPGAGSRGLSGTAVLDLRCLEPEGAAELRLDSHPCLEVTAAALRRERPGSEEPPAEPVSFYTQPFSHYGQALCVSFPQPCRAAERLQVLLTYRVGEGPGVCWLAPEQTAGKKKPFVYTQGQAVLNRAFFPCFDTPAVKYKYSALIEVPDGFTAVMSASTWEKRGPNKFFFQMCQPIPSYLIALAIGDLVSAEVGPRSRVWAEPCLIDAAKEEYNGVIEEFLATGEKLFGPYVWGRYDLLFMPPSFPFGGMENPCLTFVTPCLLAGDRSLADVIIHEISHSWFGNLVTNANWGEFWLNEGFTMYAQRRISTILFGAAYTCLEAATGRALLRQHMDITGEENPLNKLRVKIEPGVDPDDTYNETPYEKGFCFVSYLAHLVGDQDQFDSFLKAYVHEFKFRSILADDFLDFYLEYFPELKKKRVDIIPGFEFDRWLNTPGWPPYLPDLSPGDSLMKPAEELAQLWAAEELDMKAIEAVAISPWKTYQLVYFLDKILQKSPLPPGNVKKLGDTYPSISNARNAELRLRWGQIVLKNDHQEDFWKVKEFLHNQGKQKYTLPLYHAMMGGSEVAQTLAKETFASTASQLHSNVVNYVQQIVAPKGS
compound,measurement,setting,value
H-AIGGGLSSVGGGS-OH,cleaved bond,Pd_dinase [1],"Ile-G, minor"
same,fragment found,Pd_dinase [1],9-mer peptide
NH2-glycine-arginine-AOMK [Gly-Arg-AOMK],effect on Pd_dinase activity,Pd_dinase [2],completely inhibited
NH2-arginine-AMC,not cleaved,trypsin,failed to hydrolyze Arg-AMC
same,not cleaved,Pd_dinase [3],does not cleave Arg-AMC
H-Gly-Arg-{AMC},not cleaved,aminopeptidase B,aminopeptidase B only cleaved Arg-AMC
"Cc1cc(=O)oc2cc(NC(=O)[C@H](CCCNC(=N)N)NC(=O)CN)ccc12 [Gly-Arg-AMC, NH2-Gly-Arg-AMC] (H-Gly-Arg-{AMC})",cleavage of AMC substrate by Pd_dinase,Pd_dinase [4],rapidly hydrolyzes
Glutaryl-Gly-Arg-{AMC} [Glt-Gly-Arg-AMC],cleavage of AMC substrate by Pd_dinase,Pd_dinase [4],does not cleave
same,rate of cleavage by trypsin relative to Gly-Arg-AMC,bovine trypsin,80 fold
GGLSSVGGGSSTIK [KAMP-14],bactericidal activity,E. coli,bactericidal
same,degradation by Pd_dinase,"Pd_dinase [5]; 10 nM Pd_dinase, 5 μM peptide, 5 to 1200 min, triplicate, LC-MS/MS",degraded into a 12-mer peptide
same,bactericidal activity,Streptococcus pyogenes,bactericidal
same,bactericidal activity,Staphylococcus aureus,bactericidal
same,bactericidal activity,Pseudomonas aeruginosa,bactericidal
"Cc1cc(=O)oc2cc(NC(=O)[C@@H](N)CCCN=C(N)N)ccc12 [Arg-AMC, NH2-arginine-AMC]",cleavage of AMC substrate by Pd_dinase,Pd_dinase [4],does not cleave
same,cleavage of AMC substrate by aminopeptidase B,human aminopeptidase B,only cleaved
same,cleavage of AMC substrate by trypsin,bovine trypsin,failed to hydrolyze
AIGGGLSSVGGGS [KAMP-13],"metabolised at 20 h, 5 μM","Pd_dinase [5]; Parabacteroidetes distasonis, isolated protease Pd dinase (10 nM)",15.5%
Glutaryl-Gly-Arg-{AMC},not cleaved,aminopeptidase B,aminopeptidase B only cleaved Arg-AMC
same,not cleaved,Pd_dinase [3],does not cleave Glt-Gly-Arg-AMC
